According to patent publication US8729053B2, “Nuclear factor kappa B pathway inhibitor composition and use of same” (The United States of America, as represented by the …, priority 2008, dated 2014):
Entries after “also recorded” stand apart in the source; their conditions may differ. Counter-ions that a name gives are not always drawn.

Key:
IκBα = experiment: Immunoblot of phosphorylated IκBα in HEK293 cells; assay type: cell-based
Protocol: (§1) To measure endogenous level of several proteins in response to TPA induction and compound I, HEK293 cells were lysed with RIPA buffer (10 mM Tris-HCl pH 7.5, 1 mM EDTA, 0.1% sodium dodecyl sulfate, 0.1% deoxycholate, and protease inhibitor). Whole cell extracts were subjected to immunoblot analysis with the following antibodies: p65 (F-6), p50 (E-10), p52 (C-5), RelB (C-19), IκBα (C-21), PCNA (F-2) were obtained from Santa Cruz Biotechnology (Santa Cruz, Calif.). IKKα, IKKβ, IKKγ, phospho-IκBα, phospho-IKKα/β, phospho-IKKγ, pohospho-Stat3 (Tyr 705 and Ser 727), phospho-p65 (Ser536 and Ser276), phospho-p44/42, phospho-JNKs were purchased from Cell Signaling (Danvers, Mass.), and α-tubulin from Sigma (St. Louis, Mo.). Nuclear and cytoplasmic extracts were prepared with HEK293 cells by NE-PER Nuclear and Cytoplasmic Extraction Reagents (Pierce Biotechnology, Rockford, Ill.) according to the manufacturer's protocol.
To characterize the activity of compound I in targeting events upstream of NFκB, endogenous levels of kinases involved in NFκB activation were examined by immunoblot analysis. The well-established upstream regulators of NFκB activation are IKKα, IKKβ, and IκBα. […] Moreover, the phosphorylation of IκBα was inhibited even at 1.1 μM showing dose-dependent decrease by compound I pretreatment. […] In addition, compound I inhibits TNFα-induced phosphorylation of IKKα/β and IκBα at 1 hour. IKKβ from IKKα was not able to be distinguished in this analysis with antibodies which detect phosphorylated IKKα at Ser176/180 and IKKβ at Ser177/181. TPA-induced phosphorylation of IκBα is mediated primarily through IKKβ catalytic activity; thus compound I represses phosphorylation of IKKβ and in an embodiment both IKKβ and IKKα. […] The total protein levels of IKKα/β, IKKγ, and IκBα were not affected. Thus, upstream activation events rather than transcription factor binding to DNA are targeted by compound I when it inhibits NFκB induction.

IKKα/β = experiment: Immunoblot of phosphorylated IKKα/β in HEK293 cells; assay type: cell-based
Protocol: as §1
To characterize the activity of compound I in targeting events upstream of NFκB, endogenous levels of kinases involved in NFκB activation were examined by immunoblot analysis. The well-established upstream regulators of NFκB activation are IKKα, IKKβ, and IκBα. […] Moreover, the phosphorylation of IκBα was inhibited even at 1.1 μM showing dose-dependent decrease by compound I pretreatment. […]

NFκB = experiment: EMSA of NFκB DNA binding, HEK293 nuclear fractions; assay type: cell-based
Protocol: EMSA was performed with the nuclear fraction of HEK293 cell using LightShift Chemiluminescent EMSA Kit (Pierce Biotechnology, Rockford, Ill.) according to the manufacture's instruction. Oligonucleotides for NFκB, NF-1, and AP-1 were labeled with biotin by Biotin 3′ End DNA labeling Kit (Pierce Biotechnology, Rockford, Ill.). The quantified 15 μg of nuclear extracts were incubated for 20 mins with 1 μg/μl Poly (dI.dC), biotin end-label target nucleotides in 20 μl binding buffer DNA-protein complexes were fractionated on 6% a polyacrylamide gel and transferred to a nylon membrane. The membranes were processed to detect biotin-label DNA by cross-linking, blocking, and detection incubations. Results were obtained by X-ray film exposure for 10 sec and development. The target sequences of oligonucleotides for NFκB, NF-1, and AP-1 are as follows;
To determine whether the effect of compound I on nuclear translocation of NFκB leads to inhibited binding of NFκB proteins to DNA, EMSA in HEK293 cells was performed. […] TPA-induced binding complex was attenuated by pretreatment with compound I in a dose-dependent manner (lanes 5-9). This binding inhibition parallels the inhibition of luciferase reporter transactivation and inhibition of nuclear translocation of NFκB proteins. The TPA-induced binding complex disappeared when the labeled NFκB oligonucleotide was competed with an excess of unlabelled probe (90× fold).

VEGF promoter = VEGF promoter luciferase reporter assay in HEK293 cells; assay type: cell-based, human; settings: TPA 10 ng/ml 18 hours
Protocol: All expression plasmids were transiently transfected into HEK293 cells in a 96-well plate (0.1 μg/well) by using Effectene transfection reagent (Qiagen, Valencia, Calif.) according to the manufacturer's manual. HEK293 cells were maintained in Dulbecco's modified Eagle medium (Sigma, St. Louis, Mo.) supplemented with 10% fetal bovine serum (Atlanta Biologicals, Lawrenceville, Ga.) and incubated at 37° C. in a 5% CO2 incubator. After 24 hrs incubation, the medium was changed to DMEM with 0.2% FBS, and the transfectants were exposed to various concentrations of compound I and TPA (10 ng/ml). Cells were lysed with passive lysis buffer and the luciferase assay was performed using the Firefly-Luciferase reporter assay system (Promega, Madison, Wis.) and MLX Luminometer (Dynex Technology, Chantilly, Va.).
Three different luciferase reporter genes, AP-1 reporter containing four times TRE consensus originated from GCN4 and SRE reporter purchased from Stratagene (La Jolla, Calif.) respectively are as described previously (Suzukawa et al., Environ. Health Perspect., 2002, 110, 865-70). […]
Inhibition of NFκB transactivation would be expected to result in suppressed expression of genes whose transcription depends on NFκB. Quantitative RT-PCR was used to measure endogenous levels of IL-6 mRNA, transcribed from a gene whose transcription depends on NFκB but not AP-1. […]

p65 = experiment: Immunoblot of phosphorylated p65; assay type: cell-based
Protocol: as §1

Cc1cc(N)ccc1N=Nc1ccc(S(=O)(=O)CCOS(=O)(=O)O)cc1 [compound I, 2-(4-((4-amino-2-methylphenyl)diazenyl)phenylsulfonyl)ethyl hydrogen sulfate]
TPA-induced phosphorylation of IκBα (IκBα; 1.1 μM): inhibited; also recorded: reduced
TPA-induced phosphorylation of IκBα (IκBα; 17.0 and 8.5 μM pretreatment, HEK293): almost completely blocked; also recorded: complete blocking
Total protein levels of IKKα/β, IKKγ, and IκBα (IκBα; HEK293 immunoblot): not affected
TPA-induced phosphorylation of IκBα (IκBα; at 6 and 12 hours): inhibited
TNFα-induced phosphorylation of IκBα (IκBα; at 1 hour): inhibits
TPA-induced phosphorylation of IKKα/β (IKKα/β; HEK293, compared with IκBα inhibition at 17.0 and 8.5 μM): reduces
TNFα-induced phosphorylation of IKKα/β (IKKα/β; at 1 hour): inhibits
NFκB DNA binding (NFκB; concentrations as low as 1.1 μM): repressed
TPA-induced NFκB DNA binding complex, dose-dependent manner (NFκB; lanes 5-9, 1 hour pretreatment, TPA 18 hours): attenuated
TPA-induced NFκB DNA binding complex (NFκB; pretreatment at 17 μM): marked loss of binding complex
Luciferase activity driven by VEGF promoter (VEGF promoter): did not significantly affect
Phosphorylation of p65 at Ser536 (p65): inhibited
Phosphorylation of p65 at Ser536 and Ser276 (p65; FIG. 7): decreased
